Values of other authors, collected in US20100202983A1, “SELECTIVELY TARGETED ANTIMICROBIALS FOR THE TREATMENT OF PERIODONTAL DISEASE” (priority 2009, published 2010).

System: Porphyromonas gingivalis and Streptococcus mitis
Details: Murakami et al., Infect. Immun. 59:3284 (1991)

**Q.** For “Histatin 5: 24-residue peptide from human saliva with antifungal properties (DSHAKRHHGYKRKFHEKHHSHRGY; histatin 5 peptide)”, which “inhibition of coaggregation between Porphyromonas gingivalis and Streptococcus mitis” value is on record?
**A.** The value was “inhibits coaggregation”.

System: S. mutans
Details: cell culture

**Q.** Which “efficacy for reducing the colony forming units of S. mutans” value does the source give for “FBRW-22: antimicrobial peptide useful in the present invention (RWRWRWFGGGFKKFWKWFRRF; FBRW-22)” here?
**A.** The value was “efficacy has been demonstrated”.

**Q.** Which “efficacy for reducing the colony forming units of S. mutans” value does the source give for “FBα-20: antimicrobial peptide useful in the present invention (RWRRLLKKLHHLLHGGGFKKFWKWFRRF; FBalpha-20)” here?
**A.** The value was “efficacy has been demonstrated”.

**Q.** Which “efficacy for reducing the colony forming units of S. mutans” value does the source give for “FBα-21: antimicrobial peptide useful in the present invention (RWRRLLKKLHHLLHGGGIKQLLHFFQRF; FBalpha-21)” here?
**A.** Its value is “efficacy has been demonstrated”.

**Q.** Which “efficacy for reducing the colony forming units of S. mutans” value does the source give for “FBRW-16: antimicrobial peptide useful in the present invention (LKRFLKWFKRFGGGRWRWRWF; FBRW-16)” here?
**A.** The value was “efficacy has been demonstrated”.

**Q.** Which “efficacy for reducing the colony forming units of S. mutans” value does the source give for “FBRW-15: antimicrobial peptide useful in the present invention (IKQLLHFFQRFGGGRWRWRWF; FBRW-15)” here?
**A.** Its value is “efficacy has been demonstrated”.

**Q.** Which “efficacy for reducing the colony forming units of S. mutans” value does the source give for “FBRW-24: antimicrobial peptide useful in the present invention (RWRWRWFGGGLKRFLKWFKRF; FBRW-24)” here?
**A.** The value was “efficacy has been demonstrated”.

System: S. mutans
Details: not given

**Q.** Which “efficacy for reducing the biofilms formed by S. mutans, and other microbial pathogenic microbes” value does the source give for “C16 BD2.21: S. mutans-specific targeting peptide linked via linker peptide to an antimicrobial peptide (TFFRLFNRSFTQALGKGGGKLFKFLRKHLL; selectively/specifically targeted antimicrobial peptide (STAMP) chimeric polypeptide C16-BD2.21)” here?
**A.** The value was “efficacy has been demonstrated”.

**Q.** With “M8-33: S. mutans-specific targeting peptide linked via linker peptide to an antimicrobial peptide (TFFRLFNRSGGGFKKFWKWFRRF; selectively/specifically targeted antimicrobial peptide (STAMP) chimeric polypeptide M8-33)” as the substance, how does the “efficacy for reducing the biofilms formed by S. mutans, and other microbial pathogenic microbes” value read?
**A.** Its value is “efficacy has been demonstrated”.

**Q.** For “C16G2: S. mutans-specific targeting peptide linked via linker peptide to an antimicrobial peptide (TFFRLFNRSFTQALGKGGGKNLRIIRKGIHIIKKY; selectively/specifically targeted antimicrobial peptide (STAMP) chimeric polypeptide C16G2)”, which “efficacy for reducing the biofilms formed by S. mutans, and other microbial pathogenic microbes” value is on record?
**A.** Its value is “efficacy has been demonstrated”.

**Q.** With “1903 BD2-21: S. mutans-specific targeting peptide linked via linker peptide to an antimicrobial peptide (NIFEYFLEGGGKLFKFLRKHLL; selectively/specifically targeted antimicrobial peptide (STAMP) chimeric polypeptide 1903-BD2.21)” as the substance, how does the “efficacy for reducing the biofilms formed by S. mutans, and other microbial pathogenic microbes” value read?
**A.** The value was “efficacy has been demonstrated”.

**Q.** Which “efficacy for reducing the biofilms formed by S. mutans, and other microbial pathogenic microbes” value does the source give for “M8G2: S. mutans-specific targeting peptide linked via linker peptide to an antimicrobial peptide (TFFRLFNRGGGKNLRIIRKGIHIIKKY; selectively/specifically targeted antimicrobial peptide (STAMP) chimeric polypeptide M8G2)” here?
**A.** The value was “efficacy has been demonstrated”.
